In one series the target is T1, human GLP2 receptor (Homo sapiens, UniProt O95838).
T1 construct: expressed in transfected cells; host or cells: HEK cells, BacMam virus transduction
T1 sequence (O95838 1-553): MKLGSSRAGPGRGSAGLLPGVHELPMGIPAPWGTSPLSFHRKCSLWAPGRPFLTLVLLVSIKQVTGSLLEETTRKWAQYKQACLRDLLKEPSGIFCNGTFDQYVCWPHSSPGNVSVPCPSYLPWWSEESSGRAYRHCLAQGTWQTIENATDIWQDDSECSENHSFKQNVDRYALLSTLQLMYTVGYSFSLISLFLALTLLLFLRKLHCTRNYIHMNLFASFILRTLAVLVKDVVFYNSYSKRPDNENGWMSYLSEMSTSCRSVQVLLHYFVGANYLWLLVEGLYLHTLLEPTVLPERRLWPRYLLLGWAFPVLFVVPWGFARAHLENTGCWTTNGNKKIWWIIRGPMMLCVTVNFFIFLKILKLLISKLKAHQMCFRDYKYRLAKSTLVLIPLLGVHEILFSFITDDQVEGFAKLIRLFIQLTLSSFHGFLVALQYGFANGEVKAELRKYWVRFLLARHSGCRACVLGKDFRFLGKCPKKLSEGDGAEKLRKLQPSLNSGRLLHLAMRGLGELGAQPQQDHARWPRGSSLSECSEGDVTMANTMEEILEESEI
Kind of series: cAMP accumulation assay, functional agonism of human GLP2 receptor. The class given is cell-based. The settings on record: HEK cells infected with human GLP2 receptor BacMam virus, HTRF cAMP; for Emax: HEK293, read-out: Human GLP-2R agonist cAMP Emax; for EC50: read-out: Human GLP-2R agonist cAMP pEC50 (converted). The gist of the method: (§1)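 Steps: infect HEK cells with human GLP1 or GLP2 receptor BacMam for 24 hours; freeze; resuspend in HBSS with 0.5 mM IBMX; incubate with agonist 45 min at 37° C; lyse with HTRF detection reagents and read cAMP.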
(In general: Changes in cAMP serve as a functional read-out for many G protein-coupled receptors.)

For a further series, the target named is T2, human GLP1 receptor (Homo sapiens, UniProt P43220).
T2 construct: expressed in transfected cells; host or cells: HEK cells, BacMam virus transduction
Kind of series: cAMP accumulation assay, functional agonism of human GLP1 receptor. The class given is cell-based. Conditions: HEK cells infected with human GLP1 receptor BacMam virus, HTRF cAMP; for Emax: HEK293, read-out: Human GLP-1R agonist cAMP Emax; for EC50: read-out: Human GLP-1R agonist cAMP pEC50 (converted). An outline of the steps: as §1

The target of a further series is T3, mouse GLP2 receptor (Mus musculus, UniProt Q5IXF8).
T3 construct: expressed in transfected cells; host or cells: HEK cells, transient transfection with GeneJuice
T3 sequence (Q5IXF8 1-512): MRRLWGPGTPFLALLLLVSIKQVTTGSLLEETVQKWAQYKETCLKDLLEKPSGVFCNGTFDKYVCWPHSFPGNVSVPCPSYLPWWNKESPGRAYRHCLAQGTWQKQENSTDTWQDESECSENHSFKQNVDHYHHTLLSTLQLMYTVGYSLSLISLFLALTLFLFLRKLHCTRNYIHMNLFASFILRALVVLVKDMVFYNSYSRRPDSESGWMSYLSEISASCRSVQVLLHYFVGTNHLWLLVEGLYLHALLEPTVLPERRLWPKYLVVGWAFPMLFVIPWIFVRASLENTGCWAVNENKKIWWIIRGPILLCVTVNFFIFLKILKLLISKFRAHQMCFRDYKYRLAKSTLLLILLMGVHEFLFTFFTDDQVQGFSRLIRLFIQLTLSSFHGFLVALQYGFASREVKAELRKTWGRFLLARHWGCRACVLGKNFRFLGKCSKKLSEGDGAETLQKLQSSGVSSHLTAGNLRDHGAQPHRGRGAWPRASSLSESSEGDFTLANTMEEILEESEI
Kind of series: cAMP accumulation assay, functional agonism of mouse GLP2 receptor. Format: cell-based. Conditions: HEK cells transiently transfected with mouse GLP2 receptor, HTRF cAMP; for Emax: HEK293, read-out: Mouse GLP-2R agonist cAMP Emax; for EC50: read-out: Mouse GLP-2R agonist cAMP pEC50 (converted). The gist of the method:
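Transiently transfected HEK cells (24 h, frozen, 8000/well) in HBSS with 0.5 mM IBMX exposed to compound concentration series for 45 min at 37 °C. cAMP measured by HTRF after lysis and 1 h at RT; pEC50 from four-parameter concentration-response fit.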

A short description of series [1]: Stability of peptides in Fasted-State Simulated Intestinal Fluid (FaSSIF). The class given is in vitro ADME. Conditions: FaSSIF with 10 mg/ml pancreatin; t=30 mins, 37° C., pH 6.5, 10 mg/ml pancreatin.
Description: Stability of peptides was tested in Fasted-State Simulated Intestinal Fluid (FaSSIF) prepared according to manufacturer's protocol (Biorelevant, art.no. FFF01, pH 6.5). […] FaSSIF was pre-incubated for 15 min at 37° C. and spiked with test and reference item working solutions. Experiments were conducted in duplicate in a non-serial manner. The total incubation volume per replicate was 150 μl. Sampling time points for test items were 0, 0.5, 2, 5, 10, 15 and 30 min. All samples and calibration standards (prepared in FaSSIF) were precipitated by addition of 300 μl precipitant (ACN / 2% acetic acid / 0.2% HFBA, (precipitation reagent, PR)) containing internal standard (ISTD) to 150 μl sample. After incubation for 1 h at room temperature all samples were centrifuged for 10 min at 2,200×g (room temperature).
The nature of series [2]: Stability of peptides in Fasted-State Simulated Gastric Fluid (FaSSGF). The class given is in vitro ADME. Conditions: FaSSGF with 0.1 mg/ml pepsin; t=30 mins, 37° C., pH 1.6, 0.1 mg/ml pepsin.
Description: Stability of peptides was tested in Fasted-State Simulated gastric Fluid (FaSSGF) prepared according to manufacturer's protocol (Biorelevant, art. no. FFF01). […] FaSSGF was pre-incubated for 15 min at 37° C. and spiked with test and reference item working solutions. Experiments were conducted in duplicate in a non-serial manner. The total incubation volume per replicate was 150 μl. […] All samples and calibration standards (prepared in FaSSGF) were precipitated by addition of 300 μl precipitant (ACN / 2% acetic acid / 0.2% HFBA, (precipitation regent, PR)) containing internal standards (ISTD) to 150 μl sample. After incubation for 1 h at room temperature all samples were centrifuged for 10 min at 2,200×g (room temperature).
Series [3] is described as follows: Stability of peptides in rat intestinal fluid (ratIF). Conditions: Sprague Dawley, undiluted rat small intestinal fluid (ratIF).
Description: Peptides were tested for in vitro stability in native intestinal fluid obtained from the rat small intestine. Rat Sprague Dawley Small Intestinal Fluid (ratIF) (from Biotrend art. no. RSD-SIF-MI-30ML, undiluted) was preincubated for 15 min at 37° C. and spiked with test and reference item working solutions. Experiments were conducted in duplicate in a non-serial manner. The total incubation volume per replicate was 150 μl. […] All samples and calibration standards (prepared in ratIF) were precipitated by addition of 300 μl precipitant (ACN / 2% acetic acid / 0.2% HFBA, (precipitation regent, PR)) containing internal standards (ISTD) to 150 μl sample. After incubation for 1 h at room temperature all samples were centrifuged for 10 min at 2,200×g (room temperature).

The Emax is the greatest response seen or fitted, relative to the assay's reference. A word on the fraction remaining: it is the share of the starting amount still present when the sample was taken.

Positions of bridges follow the written chain, without caps; N, C: chain ends. Non-standard residues stand in square brackets, D forms with d. Residues, ends and D or L forms follow the SMILES beside them. *: point of attachment. Malonyl(2,2-Me2,histaminyl) = CC(C)(C(=O)NCCc1cnc[nH]1)C(=O)*; Ala(1H-tetrazol-5-yl) = N[C@@H](Cc1nnn[nH]1)C(=O)O; αMePhe(2-F) = C[C@](N)(Cc1ccccc1F)C(=O)O; αMeL = CC(C)C[C@](C)(N)C(=O)O; Nle = CCCC[C@H](N)C(=O)O; Aib = CC(C)(N)C(=O)O

T2 sequence (P43220 24-463): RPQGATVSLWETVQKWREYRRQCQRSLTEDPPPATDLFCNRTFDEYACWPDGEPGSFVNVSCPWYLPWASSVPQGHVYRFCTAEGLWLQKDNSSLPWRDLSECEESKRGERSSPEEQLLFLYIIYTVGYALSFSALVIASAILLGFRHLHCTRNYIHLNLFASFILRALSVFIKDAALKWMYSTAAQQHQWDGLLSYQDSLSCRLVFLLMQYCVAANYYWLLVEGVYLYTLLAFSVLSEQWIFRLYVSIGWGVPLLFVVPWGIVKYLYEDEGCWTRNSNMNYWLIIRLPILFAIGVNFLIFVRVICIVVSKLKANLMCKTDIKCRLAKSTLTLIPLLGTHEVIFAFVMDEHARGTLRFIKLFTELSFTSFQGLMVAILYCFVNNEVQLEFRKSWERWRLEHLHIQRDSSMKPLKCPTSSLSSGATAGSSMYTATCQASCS

As to `CCCC[C@@H]1NC(=O)[C@H](CCC(=O)O)NC(=O)[C@@H](NC(=O)[C@H](CO)NC(=O)[C@H](Cc2ccccc2)NC(=O)[C@H](CO)NC(=O)[C@@H](C)NC(=O)[C@H](Cc2nn[nH]n2)NC(=O)C(C)(C)C(=O)NCCc2c[nH]cn2)CCCCNC(=O)C[C@@H](C(=O)N[C@H](C(=O)N[C@@H](CC(C)C)C(=O)N[C@@H](CC(=O)O)C(=O)N[C@H]2CCC(=O)NCCCC[C@@H](C(=O)N[C@@H](CC(=O)O)C(=O)N[C@@H](Cc3ccccc3)C(=O)N[C@H](C(=O)N[C@H]3CCCCNC(=O)C[C@@H](C(=O)N[C@H]4CCC(=O)NCCCC[C@@H](C(N)=O)NC(=O)[C@H]([C@@H](C)O)NC(=O)[C@H]([C@@H](C)CC)NC(=O)[C@H](CCCCN)NC4=O)NC(=O)[C@H]([C@@H](C)CC)NC(=O)[C@H](CC(C)C)NC(=O)[C@H](Cc4c[nH]c5ccccc45)NC3=O)[C@@H](C)CC)NC(=O)[C@H](C)NC(=O)[C@H](C)NC(=O)[C@H](CCCCN)NC2=O)[C@@H](C)CC)NC(=O)[C@@H](Cc2ccccc2)NC1=O` [Example 40] ({Malonyl(2,2-Me2,histaminyl)}-[Ala(1H-tetrazol-5-yl)][dA]SFSKE[Nle][dF]DILDEKAAKDFIKWLIDEKITK-NH2; lactam 6-10, 14-18, 22-26, 27-31 (inferred); C-terminus assumed), the Emax came out at 105% on human GLP2 receptor, 89.9% on human GLP1 receptor and 99.6% on mouse GLP2 receptor. Also, the values for the EC50 at human GLP2 receptor, at human GLP1 receptor and at mouse GLP2 receptor were 0.00631 nM, 0.501 nM and 1.26 nM, respectively. For the same compound, the share remaining at 0.5 h was 68.7% in series [1], 84.9% in series [2] and 14.7% in series [3].

With `CCCC[C@H](NC(=O)[C@H](CCC(=O)O)NC(=O)[C@H](CC(=O)O)NC(=O)[C@H](CO)NC(=O)[C@](C)(Cc1ccccc1F)NC(=O)[C@H](CO)NC(=O)CNC(=O)[C@H](CC(=O)O)NC(=O)C(C)(C)NC(=O)[C@@H](N)Cc1c[nH]cn1)C(=O)N[C@H](Cc1ccccc1)C(=O)N[C@H]1CCC(=O)NCCCC[C@@H](C(=O)N[C@H]2CCC(=O)NCCCC[C@@H](C(=O)N[C@@H](CC(=O)O)C(=O)N[C@@H](Cc3ccccc3)C(=O)N[C@H](C(=O)N[C@H]3CCC(=O)NCCCC[C@@H](C(=O)N[C@H]4CCCCNC(=O)CC[C@@H](C(N)=O)NC(=O)[C@H]([C@@H](C)O)NC(=O)[C@H]([C@@H](C)CC)NC(=O)[C@H](CCCCN)NC4=O)NC(=O)[C@H]([C@@H](C)CC)NC(=O)[C@H](CC(C)C)NC(=O)[C@H](Cc4c[nH]c5ccccc45)NC3=O)[C@@H](C)CC)NC(=O)[C@H](C)NC(=O)[C@H](C)NC2=O)NC(=O)[C@H](CC(=O)O)NC(=O)[C@H](CC(C)C)NC(=O)[C@H]([C@@H](C)CC)NC1=O` [Example 48], the results for the maximal response (Emax) on human GLP2 receptor, at human GLP1 receptor and on mouse GLP2 receptor were 101%, 98.7% and 103%, respectively. Also, the EC50 is 0.00794 nM at human GLP2 receptor, 0.0158 nM at human GLP1 receptor and 0.0631 nM on mouse GLP2 receptor. Further, the fraction remaining at 0.5 h is 80.2% in series [1], 100% in series [2] and 100% in series [3].

With `CCCC[C@@H]1NC(=O)[C@H](CCC(=O)O)NC(=O)[C@@H](NC(=O)[C@H](CO)NC(=O)[C@](C)(Cc2ccccc2F)NC(=O)[C@H](CO)NC(=O)[C@@H](C)NC(=O)[C@H](CC(=O)O)NC(=O)C(C)(C)NC(=O)[C@@H](N)Cc2c[nH]cn2)CCCCNC(=O)C[C@@H](C(=O)N[C@H](C(=O)N[C@@H](CC(C)C)C(=O)N[C@@H](CC(=O)O)C(=O)N[C@H]2CCC(=O)NCCCC[C@@H](C(=O)N[C@@H](CC(=O)O)C(=O)N[C@@H](Cc3ccccc3)C(=O)N[C@H](C(=O)N[C@H]3CCCCNC(=O)C[C@@H](C(=O)N[C@H]4CCC(=O)NCCCC[C@@H](C(N)=O)NC(=O)[C@H]([C@@H](C)O)NC(=O)[C@H]([C@@H](C)CC)NC(=O)[C@H](CCCCN)NC4=O)NC(=O)[C@H]([C@@H](C)CC)NC(=O)[C@H](CC(C)C)NC(=O)[C@H](Cc4c[nH]c5ccccc45)NC3=O)[C@@H](C)CC)NC(=O)[C@H](C)NC(=O)[C@H](C)NC(=O)[C@H](CCCCN)NC2=O)[C@@H](C)CC)NC(=O)[C@@H](Cc2ccccc2)NC1=O` [Example 59] (H-H[Aib]D[dA]S[αMePhe(2-F)]SKE[Nle][dF]DILDEKAAKDFIKWLIDEKITK-NH2; lactam 8-12, 16-20, 24-28, 29-33 (inferred); C-terminus assumed), the Emax is 103% on human GLP2 receptor, 95.2% at human GLP1 receptor and 103% at mouse GLP2 receptor. The EC50 is 0.02 nM on human GLP2 receptor, 0.2 nM on human GLP1 receptor and 0.501 nM on mouse GLP2 receptor. In addition, the results for the share remaining at 0.5 h in series [1], in series [2] and in series [3] were 61.9%, 100% and 63.6%, respectively.

As to `CCCC[C@@H]1NC(=O)[C@H](CCC(=O)O)NC(=O)[C@@H](NC(=O)[C@H](CO)NC(=O)[C@](C)(Cc2ccccc2F)NC(=O)[C@H](CO)NC(=O)[C@@H](C)NC(=O)[C@H](CC(=O)O)NC(=O)C(C)(C)NC(=O)[C@@H](N)Cc2c[nH]cn2)CCCCNC(=O)C[C@@H](C(=O)N[C@@](C)(CC(C)C)C(=O)N[C@@H](CC(C)C)C(=O)N[C@@H](CC(=O)O)C(=O)N[C@H]2CCC(=O)NCCCC[C@@H](C(=O)N[C@@H](CC(=O)O)C(=O)N[C@@H](Cc3ccccc3)C(=O)N[C@H](C(=O)N[C@H]3CCCCNC(=O)C[C@@H](C(=O)N[C@H]4CCC(=O)NCCCC[C@@H](C(N)=O)NC(=O)[C@H]([C@@H](C)O)NC(=O)[C@H]([C@@H](C)CC)NC(=O)[C@H](CCCCN)NC4=O)NC(=O)[C@H]([C@@H](C)CC)NC(=O)[C@H](CC(C)C)NC(=O)[C@H](Cc4c[nH]c5ccccc45)NC3=O)[C@@H](C)CC)NC(=O)[C@H](C)NC(=O)[C@H](C)NC(=O)[C@H](CCCCN)NC2=O)NC(=O)[C@@H](Cc2ccccc2)NC1=O` [Example 60] (H-H[Aib]D[dA]S[αMePhe(2-F)]SKE[Nle][dF]D[αMeL]LDEKAAKDFIKWLIDEKITK-NH2; lactam 8-12, 16-20, 24-28, 29-33 (inferred); C-terminus assumed), the Emax was 102% at human GLP2 receptor, 96.5% at human GLP1 receptor and 102% at mouse GLP2 receptor. Further, the EC50 is 0.0158 nM on human GLP2 receptor, 0.158 nM on human GLP1 receptor and 0.794 nM on mouse GLP2 receptor. Further, the figures for the amount remaining at 0.5 h in series [1], in series [2] and in series [3] were 62.5%, 100% and 89.6%, respectively.

The values are drawn from US20240270809A1, “ORAL GLP RECEPTOR AGONISTS” (priority 2020, published 2024).
